The values below come from patent US9249115B2, “N,N1 substituted piperazines having combined antiaggregant, anticoagulant and vasodilatory activity, and method for producing same” (Vertex Closed Joint Stock Company, priority 2011, dated 2016).

For data set [1], the system named is mesentery arterioles. Kind of data set: Vasodilator properties, microcirculatory vessel responsiveness to noradrenalin, arterioles. It counts as in vivo, Wistar male rats. The procedure:
(§1) Vasodilator properties of N,N′-substituted piperazines were evaluated according to their influence on microcirculatory vessel responsiveness.
(§2) The studies were done on Wistar male rats with mass of 300±30 g (laboratory animals nursery “Rappolovo”, RAMS). The animals were kept with unlimited food (standard ration for laboratory rats K-120 by <<Inform-korm>>, Russia) and water allowance.
(§3) The solutions of N,N′-substituted piperazines and physiological (control) solution were introduced via bolus injection within 1 min into caudal vein of non-anaesthetized animals according to the dosage of 5.0 ml per 1 kg. Immediately after the introduction the animals were put in separate standard cages for observation.
(§4) In 30 min after the injection the animals were anaesthetized (thiopental sodium, 60 mg/kg intraperitoneally). The loop of small intestine adjoined to mesoappendix was retrieved through inferomedian incision. To study microcirculation in mesentery venules and arterioles in transmitted light the rat was placed on thermostated microscope objective table. The application of noradrenalin solution (Aguettant, 2 mg/ml, Laboratoire AGUETTANT, France) was done directly on the mesentery (Furness J. B., Marshall J. M., 1974; Yantareva L. I., 2004).
(§5) The study of microcirculatory vessels was done with LUMAM I1 microscope (LOMO, Russia). The recording of video data was done with the camera (Optics and Electronics ISTA Ltd) attached to a personal computer. The processing of data was done with Video-Test 4.0 software (ISTA Ltd., Russia). The diameter of the vessel wall (D, m) before and after the application of noradrenalin and the starting time of blood flow slowdown induced by noradrenalin were measured (the measurements were done for 1 min after the application).

The test system of data set [2] is mesentery venules. Kind of data set: Vasodilator properties, microcirculatory vessel responsiveness to noradrenalin, venules. It counts as in vivo, Wistar male rats. How it is done: as §1, §2, §3, §4, §5
In data set [3] the test system is experimental photothrombosis. Kind of data set: Experimental photothrombosis model, arterial blood velocity. Type of data set: in vivo, Wistar male rats. The procedure:
The studies were done on Wistar male rats with mass of 230±30 g (laboratory animals nursery “Rappolovo”, RAMS). The animals were kept with unlimited food (standard ration for laboratory rats K-120 by <<Inform-korm>>, Russia) and water allowance. […]
Thrombosis modeling: the drugs were introduced into left femoral vein, in 50 min afterwards 1 ml of Bengal rose A photosensitizer (Acros Organics, USA) solution was introduced with dose of 17 mg/kg [Boselli 2007, Petrischev 2009]. Then the incision of internal surface of animal right thigh about 2 cm in length was made. The section of the femoral vein about 5 mm in length was released from surrounding tissues and separated from neurovascular bundle. Beneath this section of the vein the black non-transparent plastic strip 3 mm in width was laid to screen off the vein and surrounding tissues from radiation. The irradiation was done using diode laser <<DPSS-laser>> (Diode Pumped Solid State Laser, South Korea) with 532 nm wavelength and 60 mW power. The area of irradiation was 1 mm^2, exposing time was 40 min. The blood flow in femoral artery was measured by high frequency Doppler ultrasonography method (<<Minimax-Doppler-K>> apparatus, frequency of sensor was 20 MHz). The blood velocity alteration due to irradiation was measured (Table 9).

For data set [4] the following is noted: in vivo; cited from earlier work.
The mark [5] stands for this setting: 0.01 mmol/kg, noradrenalin 10^−6 g/ml.
Setting [6] is: 0.025 mmol/kg, noradrenalin 10^−7 g/ml.

As to `COc1ccc(CN2CCN(CC(CS(=O)(=O)[O-])OS(=O)(=O)[O-])CC2)c(OC)c1OC.[Na+].[Na+]` (stereo not drawn) [Example 14, 2-sulfooxy-3-(4-((2,3,4-trimethoxyphenyl)-methyl)piperazine-1-yl)propane-1-sulfonic acid disodium salt monohydrate], the “% of vessel constriction” value in data set [1] (setting [5]) stood at 58%; in data set [1] (setting [6]) it was 28%; in data set [2] (setting [5]) it was 33%; in data set [2] (setting [6]), 22%. Further, the “Blood flow slowdown, Latent period of slowdown” value in data set [1] (setting [5]) stood at 43 ± 4 s; in data set [2] (setting [5]), 41 ± 6 s. In addition, the “V, cm/s (arterial blood velocity)” value in data set [3] (0.01 mmol/kg, 0 min of irradiation) is listed as 6.9 ± 3.2 cm/s; in data set [3] (0.01 mmol/kg, 10 min of irradiation), 7.00 ± 2.0 cm/s; in data set [3] (0.01 mmol/kg, 20 min of irradiation), 6.8 ± 2.0 cm/s; in data set [3] (0.01 mmol/kg, 30 min of irradiation), 6.9 ± 1.3 cm/s; in data set [3] (0.01 mmol/kg, 40 min of irradiation), 6.6 ± 1.4 cm/s; in data set [3] (0.025 mmol/kg, 0 min of irradiation), 8.3 ± 1.8 cm/s. In addition, the “V, cm/s (arterial blood velocity)” value amounted to 8.1 ± 1.3 cm/s in data set [3] (0.025 mmol/kg, 10 min of irradiation); 8.3 ± 2.0 cm/s in data set [3] (0.025 mmol/kg, 20 min of irradiation); 8.0 ± 1.3 cm/s in data set [3] (0.025 mmol/kg, 30 min of irradiation); 8.2 ± 1.2 cm/s in data set [3] (0.025 mmol/kg, 40 min of irradiation).
Consider `Clc1ccccc1CN1CCc2sccc2C1` [ticlopidine], for which, in data set [4], the “dermal reactions that lead to treatment cessation” value is reported as 4-15% and the “gastrointestinal reactions that lead to treatment cessation” value is “up to 20%”.
